Experimental findings from publication PMC5982655, “Interaction of the New Monofunctional Anticancer Agent Phenanthriplatin With Transporters for Organic Cations” (Frontiers in Chemistry, 2018) are described below.

The term IC50 denotes the concentration at which inhibition is half-maximal. A low value points to inhibition by little substance.

One assay has as its target T1, mOCT2 (Mus musculus, UniProt O70577).
T1 construct: expressed in transfected cells
T1 sequence (O70577 1-553): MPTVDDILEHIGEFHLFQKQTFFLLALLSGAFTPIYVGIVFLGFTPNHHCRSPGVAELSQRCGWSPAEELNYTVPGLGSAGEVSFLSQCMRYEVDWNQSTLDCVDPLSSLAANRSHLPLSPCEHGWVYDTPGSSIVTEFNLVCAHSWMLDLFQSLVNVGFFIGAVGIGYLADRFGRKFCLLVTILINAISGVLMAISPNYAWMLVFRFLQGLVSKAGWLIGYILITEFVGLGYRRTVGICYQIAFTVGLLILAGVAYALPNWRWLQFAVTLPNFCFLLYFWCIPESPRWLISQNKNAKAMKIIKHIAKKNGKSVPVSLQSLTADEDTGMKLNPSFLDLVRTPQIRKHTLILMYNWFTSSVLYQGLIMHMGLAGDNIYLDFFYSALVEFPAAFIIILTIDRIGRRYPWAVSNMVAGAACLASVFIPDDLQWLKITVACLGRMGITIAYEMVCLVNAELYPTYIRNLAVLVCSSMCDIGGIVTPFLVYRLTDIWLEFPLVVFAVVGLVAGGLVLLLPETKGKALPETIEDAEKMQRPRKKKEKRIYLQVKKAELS
In words: Inhibition of ASP+ uptake in HEK 293 cells expressing mOCT2. Format: cell-based, murine. Particulars: HEK 293 mOCT2, 1 μM ASP+. How it is done: The interaction of phenanthriplatin with transporters for organic cations (OCT1-3, MATE1, and MATE2K) was investigated by measuring its effects on the uptake of the fluorescent organic cation 4-(4-dimethylamino)styryl-N-methylpyridinium (ASP^+). Microfluorometric measurements of ASP^+ uptake were performed with a fluorescence plate reader (Infinity 200, Tecan, Crailsheim, Germany; excitation at 465 nm, emission at 590 nm) as described previously for cultured HEK 293 cells (Wilde et al., [2009]). Before measurements, the culture medium in the wells of the 96 well microtiter plate containing HEK 293 cells was replaced by a HCO3- -free Ringer-like solution containing (in mM) NaCl 145, K2HPO4 1.6, KH2PO4 0.4, D-glucose 5, MgCl2 1, calcium gluconate 1.3, and pH adjusted to 7.4. Fluorescence was measured dynamically at 37°C in each well before and after ASP^+ addition to HCO3- -free Ringer-like solution, alone or together with increasing phenanthriplatin concentrations, and plotted versus time. ASP^+ (final concentration 1 or 10 μM for experiments with OCTs or MATEs, respectively) was added after the third sampling interval. Emission from the complete area of the well bottom was analyzed four times and averaged for each well. […] Background fluorescence was measured for each plate in wells with identical solutions containing no cells and subtracted from each well containing cells. […]

A further assay has as its target T2, hOCT2 (Homo sapiens, UniProt O15244).
T2 construct: expressed in transfected cells; gift of H. Koepsell
T2 sequence (O15244 1-555): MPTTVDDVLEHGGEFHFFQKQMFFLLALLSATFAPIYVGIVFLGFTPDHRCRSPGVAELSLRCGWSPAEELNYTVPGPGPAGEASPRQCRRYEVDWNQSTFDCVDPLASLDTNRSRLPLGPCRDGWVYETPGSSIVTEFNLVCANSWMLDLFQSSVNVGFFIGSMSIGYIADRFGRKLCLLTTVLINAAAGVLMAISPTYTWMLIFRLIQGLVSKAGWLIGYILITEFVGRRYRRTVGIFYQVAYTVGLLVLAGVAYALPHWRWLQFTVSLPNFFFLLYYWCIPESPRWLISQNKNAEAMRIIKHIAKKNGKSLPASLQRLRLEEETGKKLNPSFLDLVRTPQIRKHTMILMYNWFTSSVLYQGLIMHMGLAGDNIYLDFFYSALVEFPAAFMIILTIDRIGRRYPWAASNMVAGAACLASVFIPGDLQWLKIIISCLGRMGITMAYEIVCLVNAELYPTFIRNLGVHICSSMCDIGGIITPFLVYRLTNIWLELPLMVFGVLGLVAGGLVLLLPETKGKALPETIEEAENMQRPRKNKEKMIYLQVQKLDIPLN
The experiment in a line: Inhibition of ASP+ uptake in HEK 293 cells expressing hOCT2. Format: cell-based. Particulars: HEK 293 hOCT2, 1 μM ASP+. The protocol:
(§1) The interaction of phenanthriplatin with transporters for organic cations (OCT1-3, MATE1, and MATE2K) was investigated by measuring its effects on the uptake of the fluorescent organic cation 4-(4-dimethylamino)styryl-N-methylpyridinium (ASP^+). Microfluorometric measurements of ASP^+ uptake were performed with a fluorescence plate reader (Infinity 200, Tecan, Crailsheim, Germany; excitation at 465 nm, emission at 590 nm) as described previously for cultured HEK 293 cells (Wilde et al., [2009]). Before measurements, the culture medium in the wells of the 96 well microtiter plate containing HEK 293 cells was replaced by a HCO3- -free Ringer-like solution containing (in mM) NaCl 145, K2HPO4 1.6, KH2PO4 0.4, D-glucose 5, MgCl2 1, calcium gluconate 1.3, and pH adjusted to 7.4. Fluorescence was measured dynamically at 37°C in each well before and after ASP^+ addition to HCO3- -free Ringer-like solution, alone or together with increasing phenanthriplatin concentrations, and plotted versus time. ASP^+ (final concentration 1 or 10 μM for experiments with OCTs or MATEs, respectively) was added after the third sampling interval. Emission from the complete area of the well bottom was analyzed four times and averaged for each well. […] Background fluorescence was measured for each plate in wells with identical solutions containing no cells and subtracted from each well containing cells. Experiments were performed with cells from one passage of the same day with controls and test replicates in the same plate.
(§2) Data are presented as mean values ± SEM, with (n) referring to the number of wells. IC50 values defined as the concentration of platinum agent required to inhibit uptake of ASP^+ by 50% and EC50 values used to assess cell viability were obtained by sigmoidal concentration-response curve fitting using GraphPad Prism, Version 5.3 (GraphPad Software, San Diego, USA). […] For multiple comparisons, ANOVA with Bonferroni post-test was used. A P-value < 0.05 was considered statistically significant.

The target of another assay is T3, hOCT1 (Homo sapiens, UniProt O15245).
T3 construct: expressed in transfected cells; gift of H. Koepsell
T3 sequence (O15245 1-554): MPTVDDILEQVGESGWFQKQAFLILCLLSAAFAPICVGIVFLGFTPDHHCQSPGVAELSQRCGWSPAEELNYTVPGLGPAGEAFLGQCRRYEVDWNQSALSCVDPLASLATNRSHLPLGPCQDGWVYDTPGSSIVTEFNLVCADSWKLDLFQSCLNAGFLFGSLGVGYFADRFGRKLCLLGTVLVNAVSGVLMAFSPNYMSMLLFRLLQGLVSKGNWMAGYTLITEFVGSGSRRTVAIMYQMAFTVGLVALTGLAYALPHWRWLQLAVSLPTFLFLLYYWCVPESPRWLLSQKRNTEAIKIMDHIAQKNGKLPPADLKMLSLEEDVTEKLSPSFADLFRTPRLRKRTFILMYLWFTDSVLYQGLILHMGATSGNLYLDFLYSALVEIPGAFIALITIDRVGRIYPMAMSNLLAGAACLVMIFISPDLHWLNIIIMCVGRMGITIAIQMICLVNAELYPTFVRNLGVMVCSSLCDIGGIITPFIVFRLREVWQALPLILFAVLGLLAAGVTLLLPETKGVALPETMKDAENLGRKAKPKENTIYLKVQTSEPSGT
In words: Inhibition of ASP+ uptake in HEK 293 cells expressing hOCT1. The following applies: HEK 293 hOCT1, 1 μM ASP+. It counts as cell-based. The protocol:
as §1, §2

As to `N.N.[Cl][Pt+].c1ccc2c(c1)cnc1ccccc12` [phenanthriplatin, cis-[Pt(NH3)2Cl(phenanthridine)]^+], the IC50 against mOCT2 was found to be 2000 nM; against hOCT2, 2000 nM; at hOCT1, 19000 nM. In addition, the “logIC50 (logEC50) ± SEM for inhibition of ASP+ uptake” value at mOCT2 is −5.64 ± 0.05; at hOCT2, −5.67 ± 0.10; at hOCT1, −4.72 ± 0.21.
